Measured values: PubChem BioAssay (NCI)
Values joined by “and” are separate entries in the source; they are usually repeats but may differ in a detail not shown here. Identical values can stand only once.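 A five-concentration, 48-hour dose response in 96-well plates underlies each endpoint, interpolated linearly between surrounding concentrations. At the GI50, growth is halved. TGI: concentration producing complete growth inhibition.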

How the values were obtained:
Assay in all cases: NCI-60 cell line screen, 48 h
[1] = tested on: HCC-2998 colon
[2] = tested on: TK-10 renal
[3] = tested on: MCF7 breast
[4] = tested on: SN12C renal
[5] = tested on: K-562 leukemia
[6] = tested on: SK-MEL-28 melanoma
[7] = tested on: SNB-19 CNS
[8] = tested on: BT-549 breast
[9] = tested on: A549 NSCLC
[10] = tested on: MDA-MB-435
[11] = tested on: SNB-75 CNS
[12] = tested on: CAKI-1 renal
[13] = tested on: UO-31 renal
[14] = tested on: LOX IMVI melanoma
[15] = tested on: U251 CNS
[16] = tested on: MALME-3M melanoma
[17] = tested on: DU-145 prostate
[18] = tested on: IGROV1 ovarian
[19] = tested on: NCI-H460 lung
[20] = tested on: SF-268 CNS
[21] = tested on: UACC-257 melanoma
[22] = tested on: RPMI-8226 leukemia
[23] = tested on: NCI-H23 lung
[24] = tested on: M14 melanoma
[25] = tested on: CCRF-CEM leukemia
[26] = tested on: SW-620 colon
[27] = tested on: ACHN renal
[28] = tested on: UACC-62 melanoma
[29] = tested on: EKVX NSCLC
[30] = tested on: HT29 colon
[31] = tested on: HCT-116 colon
[32] = tested on: HS 578T breast
[33] = tested on: MDA-MB-231 breast
[34] = tested on: COLO 205 colon
[35] = tested on: T-47D breast
[36] = tested on: PC-3 prostate
[37] = tested on: SK-MEL-2 melanoma
[38] = tested on: HCT-15 colon
[39] = tested on: 786-0 renal
[40] = tested on: SK-OV-3 ovarian
[41] = tested on: OVCAR-3 ovarian
[42] = tested on: SK-MEL-5 melanoma
[43] = tested on: SF-295 CNS
[44] = tested on: NCI-H226 lung
[45] = tested on: NCI/ADR-RES ovarian
[46] = tested on: OVCAR-8 ovarian
[47] = tested on: HOP-92 NSCLC
[48] = tested on: RXF 393 renal
[49] = tested on: HOP-62 NSCLC
[50] = tested on: OVCAR-5 ovarian
[51] = tested on: A498 renal
[52] = tested on: HL-60(TB) leukemia
[53] = tested on: NCI-H522 lung
[54] = tested on: OVCAR-4 ovarian
[55] = tested on: SR leukemia
[56] = tested on: MOLT-4 leukemia
[57] = tested on: KM12 colon
[58] = tested on: SF-539 CNS

Structure (SMILES): C[C@@]1(C(=O)Nc2ccc(F)nc2)CCCN1c1nc(Nc2cc(C3CC3)[nH]n2)c2cccn2n1
- GI50 [1]: 1060 nM and 6270 nM
- TGI [1]: > 4700 nM and 22700 nM
- GI50 [2]: 1570 nM and 593 nM
- TGI [2]: > 10000 nM and 8380 nM
- GI50 [3]: 44.5 nM and 30.5 nM
- TGI [3]: > 2690 nM and 15200 nM
- GI50 [4]: 877 nM and 3550 nM
- TGI [4]: > 6620 nM and 18300 nM
- TGI [5]: > 10000 nM and 56600 nM
- GI50 [6]: 11800 nM
- TGI [6]: > 3920 nM and 25700 nM
- GI50 [7]: 12300 nM
- TGI [7]: > 10000 nM and 37300 nM
- GI50 [8]: 832 nM and 3060 nM
- TGI [8]: > 2460 nM and 14200 nM
- GI50 [9]: 259 nM and 384 nM
- TGI [9]: > 10000 nM and 22900 nM
- TGI [10]: > 5420 nM and 23600 nM
- GI50 [11]: 138 nM and 1240 nM
- GI50 [12]: 565 nM and 725 nM
- TGI [12]: > 2290 nM and 7000 nM
- GI50 [13]: 458 nM and 2780 nM
- TGI [13]: > 4380 nM and 16000 nM
- GI50 [14]: 346 nM and 1100 nM
- TGI [14]: > 2040 nM and 12200 nM
- GI50 [15]: 1740 nM and 4920 nM
- TGI [15]: > 7390 nM and 20600 nM
- GI50 [16]: 11700 nM
- TGI [16]: > 4480 nM and 29400 nM
- GI50 [17]: 1030 nM and 2570 nM
- TGI [17]: > 4000 nM and 16400 nM
- GI50 [18]: 514 nM and 1710 nM
- TGI [18]: > 3870 nM and 16500 nM
- GI50 [19]: 184 nM and 288 nM
- TGI [19]: > 3070 nM and 14300 nM
- GI50 [20]: 631 nM and 2560 nM
- TGI [20]: > 2570 nM and 15600 nM
- GI50 [21]: 211 nM and 120 nM
- TGI [21]: > 4460 nM and 16500 nM
- GI50 [22]: 7860 nM
- TGI [22]: > 2890 nM and 42100 nM
- GI50 [23]: 391 nM and 794 nM
- TGI [23]: > 4930 nM and 19800 nM
- GI50 [24]: 624 nM and 2500 nM
- TGI [24]: > 2850 nM and 20500 nM
- GI50 [25]: 378 nM and 574 nM
- TGI [25]: > 100000 nM
- GI50 [26]: 214 nM and 342 nM
- TGI [26]: > 10000 nM and 23400 nM
- GI50 [27]: 849 nM and 3360 nM
- TGI [27]: > 3470 nM and 26100 nM
- GI50 [28]: 388 nM and 2100 nM
- TGI [28]: > 2120 nM and 18700 nM
- GI50 [29]: 417 nM and 1210 nM
- TGI [29]: > 4230 nM and 17100 nM
- GI50 [30]: 4.43 nM and 10.3 nM
- TGI [30]: > 10000 nM and 1840 nM
- GI50 [31]: 314 nM and 575 nM
- TGI [31]: > 2330 nM and 15900 nM
- GI50 [32]: 631 nM and 2560 nM
- TGI [32]: 3190 nM and 8610 nM
- GI50 [33]: 786 nM and 3110 nM
- TGI [33]: > 10000 nM and 15100 nM
- GI50 [34]: 9.29 nM and 50.1 nM
- TGI [34]: 236 nM and 321 nM
- GI50 [35]: 1200 nM and 7470 nM
- TGI [35]: > 3530 nM and 27200 nM
- GI50 [36]: 989 nM and 1410 nM
- TGI [36]: > 7620 nM and 23500 nM
- GI50 [37]: 631 nM and 2640 nM
- TGI [37]: > 2290 nM and 18800 nM
- GI50 [38]: 826 nM and 2120 nM
- TGI [38]: > 4910 nM and 36100 nM
- GI50 [39]: 855 nM and 2780 nM
- TGI [39]: > 4290 nM and 17700 nM
- GI50 [40]: 950 nM and 6120 nM
- TGI [40]: > 4910 nM and 22200 nM
- GI50 [41]: 8730 nM
- TGI [41]: > 3400 nM and 22300 nM
- GI50 [42]: 3820 nM
- TGI [42]: > 2150 nM and 17500 nM
- GI50 [43]: 472 nM and 841 nM
- TGI [43]: 3200 nM and 6780 nM
- GI50 [44]: 248 nM and 651 nM
- TGI [44]: 1900 nM and 7910 nM
- GI50 [45]: 3990 nM and 4990 nM
- TGI [45]: > 10000 nM and 25900 nM
- GI50 [46]: 1770 nM and 5990 nM
- TGI [46]: > 10000 nM and 21100 nM
- GI50 [47]: 11.9 nM and < 10 nM
- TGI [47]: 672 nM and 200 nM
- GI50 [48]: 396 nM and 1440 nM
- TGI [48]: 1260 nM and 7110 nM
- GI50 [49]: 404 nM and 1710 nM
- TGI [49]: > 5170 nM and 15400 nM
- GI50 [50]: 225 nM and 455 nM
- TGI [50]: > 2770 nM and 15500 nM
- GI50 [51]: 194 nM and 927 nM
- TGI [51]: 896 nM and 3990 nM
- GI50 [52]: 9.05 nM
- TGI [52]: > 2060 nM
- GI50 [53]: 1190 nM and 4000 nM
- TGI [53]: > 2540 nM and 20900 nM
- GI50 [54]: 1340 nM and 3200 nM
- TGI [54]: > 3380 nM and 26700 nM
- TGI [55]: > 2530 nM and 15700 nM
- GI50 [56]: 7880 nM
- TGI [56]: > 3390 nM and 58700 nM
- GI50 [57]: 53.3 nM and 125 nM
- TGI [57]: 467 nM and 817 nM
- GI50 [58]: 820 nM and 2470 nM
- TGI [58]: > 2450 nM and 16300 nM
